Reference: patent US20240150338A1, “COMPOUNDS AND USE THEREOF FOR TREATMENT OF NEURODEGENERATIVE, DEGENERATIVE AND METABOLIC DISORDERS” (University of Florida Research Foundation, Incorporated, priority 2021, published 2024)

Key:
[1] = Microsomal stability assay; assay type: in vitro ADME; conditions: 1 mg/ml human hepatic microsomes, 37° C., half-life by LC-MS/MS; yes = stability ≥15 minutes
Procedure: The metabolic stability of some test compounds was determined in hepatic human and mouse microsomes. The compound was incubated with 1 mg/ml human or mouse hepatic microsomes at 37° C. with continuous shaking. Aliquots were removed at various time points between 5 minutes and 2 hours and acetonitrile was added to quench the reactions and precipitate the proteins. Samples were then centrifuged through 0.45 μm filter plates and half-lives were determined by LC-MS/MS.

[2] = system: PK1 neuroblastoma cells exposed to TPrP; test: cells; assay type: cell-based; conditions: Neuroblastoma cell, 96 h, read-out: TPrP EC50

SMILES	Stabilty in human microsomes ≥ 15 minutes [1]	EC50 [2] [nM]
CNS(=O)(=O)c1ccc(-c2csc(Nc3ccc(CS(C)(=O)=O)cc3)n2)cc1 [SR-35727, N-methyl-4-(2-((4-((methylsulfonyl)methyl)phenyl)amino)thiazol-4-yl)benzenesulfonamide]	yes	18
COc1cc(-c2nc(Nc3ccc(S(N)(=O)=O)cc3)sc2CO)cc(OC)n1 [SR-33797, 4-((4-(2,6-Dimethoxypyridin-4-yl)-5-(hydroxymethyl)thiazol-2-yl)amino)benzenesulfonamide]	yes	45
Cc1cc(-c2csc(Nc3ccc(S(=O)(=O)O)cc3)n2)ccn1 [SR-33126, 4-((4-(2-Methylpyridin-4-yl)thiazol-2-Yl)amino)benzenesulfonic acid]	yes	25
O=S(=O)(O)c1ccc(Nc2nc(-c3ccnc(Cl)c3)cs2)cc1 [SR-33128, 4-((4-(2-Chloropyridin-4-yl)thiazol-2-yl)amino)benzenesulfonic acid]	yes	> 500
CS(=O)(=O)c1ccc(Nc2nc(-c3ccnc(Cl)c3)cs2)cc1C(F)(F)F [SR-34982, 4-(2-Chloropyridin-4-yl)-N-(4-(methylsulfonyl)-3-(trifluoromethyl)phenyl)thiazol-2-amine]	yes	120
Cc1cc(-c2nc(Nc3ccc(S(C)(=O)=O)c(Cl)c3)sc2CO)ccn1 [SR-33528, (2-((3-Chloro-4-(methylsulfonyl)phenyl)amino)-4-(2-methylpyridin-4-yl)thiazol-5-yl)methanol]	yes	80
CC(C)NS(=O)(=O)c1ccc(-c2nc(Nc3ccc(S(N)(=O)=O)cc3)sc2CO)cc1 [SR-34776, 4-(5-(Hydroxymethyl)-2-((4-sulfamoylphenyl)amino)thiazol-4-yl)-N-isopropylbenzenesulfonamide]	yes	100
CC(C)c1ccc(-c2csc(Nc3ccc(S(C)(=O)=O)cc3)n2)cc1 [SR-35789, 4-(4-Isopropylphenyl)-N-(4-(methylsulfonyl)phenyl)thiazol-2-amine]	yes	> 500
Cc1cc(-c2csc(Nc3ccc(CS(C)(=O)=O)cc3)n2)ccn1 [SR-35786, 4-(2-Methylpyridin-4-yl)-N-(4-((methylsulfonyl)methyl)phenyl)thiazol-2-amine]	yes	14
CC(C)NS(=O)(=O)c1ccc(-c2csc(Nc3ccc(S(N)(=O)=O)cc3)n2)cc1 [SR-34770, N-isopropyl-4-(2-((4-sulfamoylphenyl)amino)thiazol-4-yl)benzenesulfonamide]	yes	300
CNS(=O)(=O)c1ccc(-c2csc(Nc3ccc(C(F)(F)F)cc3)n2)cc1 [SR-35726, N-methyl-4-(2-((4-(trifluoromethyl)phenyl)amino)thiazol-4-yl)benzenesulfonamide]	yes	480
NS(=O)(=O)c1ccc(Nc2nc(-c3ccnc(Cl)c3)cs2)cc1 [SR-33125, 4-((4-(2-Chloropyridin-4-yl)thiazol-2-yl)amino)benzenesulfonamide]	yes	35
COc1cc(-c2nc(Nc3ccc(S(C)(=O)=O)cc3)sc2CO)cc(OC)n1 [SR-33796, (4-(2,6-Dimethoxypyridin-4-yl)-2-((4-(methylsulfonyl)phenyl)amino)thiazol-5-yl)methanol]	yes	450
CS(=O)(=O)c1ccc(Nc2nc(-c3ccnc(Cl)c3)cs2)cc1Cl [SR-33129, N-(3-chloro-4-(methylsulfonyl)phenyl)-4-(2-chloropyridin-4-yl)thiazol-2-amine]	yes	65
COc1cc(-c2csc(Nc3ccc(S(C)(=O)=O)cc3)n2)cc(OC)n1 [SR-33789, 4-(2,6-Dimethoxypyridin-4-yl)-N-(4-(methylsulfonyl)phenyl)thiazol-2-amine]	yes	300
Cc1cc(-c2nc(Nc3ccc(S(N)(=O)=O)cc3)sc2CO)cc(C)n1 [SR-33798, 4-((4-(2,6-Dimethylpyridin-4-yl)-5-(hydroxymethyl)thiazol-2-yl)amino)benzenesulfonamide]	yes	20
NS(=O)(=O)c1ccc(Nc2nc(-c3ccc(S(=O)(=O)Nc4ccccc4)cc3)c(CO)s2)cc1 [SR-34773, 4-(5-(Hydroxymethyl)-2-((4-sulfamoylphenyl)amino)thiazol-4-yl)-N-phenylbenzenesulfonamide]	yes	300
Cc1cc(-c2nc(Nc3ccc(S(C)(=O)=O)cc3)sc2CCl)ccn1 [SR-34893, 5-(Chloromethyl)-4-(2-methylpyridin-4-yl)-N-(4-(methylsulfonyl)phenyl)thiazol-2-amine]	yes	400
Cc1cc(-c2nc(Nc3ccc(S(C)(=O)=O)cc3)sc2CO)cc(C)n1 [SR-33794, (4-(2,6-Dimethylpyridin-4-yl)-2-((4-(methylsulfonyl)phenyl)amino)thiazol-5-yl)methanol]	yes	70
CS(=O)(=O)c1ccc(Nc2nc(-c3ccncc3)c(CO)s2)cc1 [SR-33795, (2-((4-(Methylsulfonyl)phenyl)amino)-4-(pyridin-4-yl)thiazol-5-yl)methanol]	yes	350
Cc1cc(-c2nc(Nc3ccc(S(=O)(=O)O)cc3)sc2CO)cc(C)n1 [SR-33801, 4-((4-(2,6-Dimethylpyridin-4-yl)-5-(hydroxymethyl)thiazol-2-yl)amino)benzenesulfonic acid]	yes	40
Cc1cc(-c2nc(Nc3ccc(S(N)(=O)=O)cc3)sc2CO)ccn1 [SR-33524, 4-((5-(Hydroxmethyl)-4-(2-methylpyridin-4-yl)thiazol-2-yl)amino)benzenesulfonamide]	yes	60
Cc1cc(-c2csc(Nc3ccc(S(=O)(=O)O)cc3)n2)cc(C)n1 [SR-33784, 4-((4-(2,6-Dimethylpyridin-4-yl)thiazol-2-yl)amino)benzenesulfonic acid]	yes	25
NS(=O)(=O)c1ccc(Nc2nc(-c3ccncc3)c(CO)s2)cc1 [SR-28550, 4-((5-(Hydroxymethyl)-4-(pyridin-4-yl)thiazol-2-yl)amino)benzenesulfonamide]	yes	70
CS(=O)(=O)c1ccc(Nc2nc(-c3ccc(C(F)(F)F)cc3)cs2)cc1 [SR-35733, N-(4-(Methylsulfonyl)phenyl)-4-(4-(trifluoromethyl)phenyl)thiazol-2-amine]	yes	> 500
CNS(=O)(=O)c1ccc(-c2nc(Nc3ccc(S(N)(=O)=O)cc3)sc2CO)cc1 [SR-34777, 4-(5-(Hydroxymethyl)-2-((4-sulfamoylphenyl)amino)thiazol-4-yl)-N-methylbenzenesulfonamide]	–	70
